Measured values: US20120148857A1, “Treated wood and methods of treatment” (priority 2010, published 2012)
Where two headings read alike, the source gives them in different places.

Experiments:
[1] = Source text: Knowing the molecular weight of the product, it was possible to calculate how many moles of water were hydrated. It was thus possible to calculate the molar content of a saturated solution of the particular zinc salt, and thus to determine if is was sufficiently soluble at a low but possible processing temperature for an unheated preservative-treatment facility. […] Ten grams of the clear solution was dried overnight in a 70 C oven. […] Water has a molecular weight of 18.
The anhydrous foamed salt was crushed and added back to the solution, as crystallization seeding.
The washed precipitates were dried to constant weight in a 70 C oven.

[2] = from the CRC listed solubility
Text: Following is a listing of candidate zinc salts with the properties found in the CRC handbook, 65th edition, and their stated solubilities at various temperatures, and molecular weights. The Name in each case is followed by CRC listed solubilities at stated temperatures, Molecular weight, and Molarity of saturated solution.

[3] = pH test of impregnating solution with Hydrion test paper; conditions: 0.2 molar solution
Text: It was then allowed to float in a 0.2 molar sodium metaborate solution, absorbing it by capillary wicking. After six hours the upper surface was damp.

[4] = pH measurement of aqueous solutions with ion-sensitive FET pH meter; type: physicochemical; conditions: water
Text: Time was allowed for the pH reading to equilibrate after each addition. This typically took ten to thirty seconds, and increased noticeably with further additions. An Ion-Sensitive FET pH meter was used. The meter was calibrated before and after each measurement series with pH 7.0 buffer solution, and the readings corrected for any meter drift observed. The pH measurements were graphed.
Five milliliters of a solution of pH 4.1 contains about 10^−4 moles H^+ per liter times 5/1000=5×10^−7 moles H^+. Fifteen mL of a solution of pH 7.5 contains 15/1000×10^−75 moles of H^+, or about 10^−9.3 moles H^+. Twenty milliliters of a solution of pH 6.9 contains 20/1000×10^−6.9 moles of H+, or about 10^−8.7 moles of H+.

O=C([O-])c1ccccc1.O=C([O-])c1ccccc1.[Zn+2] [Zinc benzoate]
Molarity of saturated solution [1]: mol/L 0.0117

O=C([O-])CC(O)C(=O)[O-].[Zn+2] (stereo not drawn) [Zinc malate]
Molarity of saturated solution [1]: mol/L 0.071
Molarity of the saturated solution [1]: 0.133 M
Solubility (laboratory measurement) [1]: Zinc malate 1.4 g/100 ml@16 C.

O.O.O.O.O.O.O.O.O=S(=O)([O-])c1ccc(O)cc1.O=S(=O)([O-])c1ccc(O)cc1.[Zn+2] [Zinc phenol-sulfonate octahydrate]
Molarity of saturated solution [2]: mol/L 1.12

O=B[O-].[Na+] [sodium metaborate]
pH of solution by Hydrion test paper [3]: 10-11 pH

(ZnO) (B2O3)2
pH of a saturated solution [4]: 6.7

Zinc Valerate dihydrate
Molarity of saturated solution [2]: mol/L 0.085

Zinc mandelate
Molarity of saturated solution ([1]; from the laboratory solubility (10-16 C)): mol/L 0.010
Solubility (laboratory measurement) ([1]; water, 14 C): Zinc mandelate 0.38 g/100 ml@14 C.

Zinc sorbate
Solubility in words [1]: so little solubility even in hot water

zinc borate [zinc borate furnished by City Chemical, reference compound]
pH of a saturated solution [4]: 6.7
